Where “and” joins values, the source holds several entries; their conditions need not be identical. Identical values can stand only once. Like-named read-outs stand apart in the source and are kept apart here.
Legend:
[1] = system: A2780cis cells; experiment: Photo- and cytotoxic activity determination (MTT), A2780cis cells, normoxia or hypoxia; format: cell-based; conditions: for inhibition at 250 µM / Partial inhibition (% of cell growth inhibition with respect to untreated controls), Hypoxia / Partial inhibition (% of cell growth inhibition with respect to untreated controls), Normoxia: 2 h incubation in the dark, 48 h drug-free recovery, 250 μM; for Hypoxia PI (phototherapeutic index) / Normoxia PI (phototherapeutic index): dark tested up to 250 μM; for A2780cis PI (phototherapeutic index), IC50 dark/IC50 irradiated: dark tested up to 100 μM
Description: (§1) Having shown that the Ir(III)-COUPY conjugates can sensitize both type I and II ROS through spectroscopic techniques and readily internalize into living cells, their photocytotoxicity was screened in various cancer cell lines. This screening included two representative melanoma cell lines (human A375 and […] human SK-MEL-28) and cancer cells with resistance to the clinical drug cisplatin. For the latter, both sensitive and cisplatin-resistant ovarian cancer cells (A2780 and A2780cis) as well as HeLa cells, which also show a degree of chemoresistance to the platinum anticancer drug in vitro,[54] were used. For the determination of dark and light cytotoxicity, dose–response curves were assayed from both conditions to provide the correspondent IC50 values, which correspond to the concentration needed for inhibition of cell growth by 50%. Phototherapeutic index (PI) was calculated as the ratio of dark to light IC50 value for each compound.
(§2) A375, HeLa, and SK-MEL-28 cells were cultured in Dulbecco’s modified Eagle medium (DMEM) supplemented with 10% FBS, L-glutamine, and 1% penicillin–streptomycin. A2780 and A2780cis cells were grown in RPMI-1640 cell medium supplemented with 10% fetal bovine serum (FBS) and 2 mM L-glutamine. Acquired resistance to cisplatin in the A2780cis cell line was maintained by adding cisplatin 1 μM to culture medium every second passage. Cells were cultured in a humidified incubator at 310 K with 5% CO2 atmosphere and subcultured two or three times a week with appropriate densities and were confirmed to be mycoplasma-free using a standard Hoechst DNA staining method.
A2780, A2780cis, HeLa, A375, and SK-MEL-28 cells were maintained at logarithmic growth-phase and cultured in 96-well plates at a density of 5000 cells/well in complete medium for 24 h at 310 K, 5% CO2 in a humidified incubator. For hypoxia experiments, a hypoxia condition was set up by Tissue Culture Service at University of Murcia using nitrogen (N2) to displace O2 down to a minimum of 2% in a Forma Steri-Cycle i160 incubator (Thermo Fisher Scientific). […] A light-based treatment schedule was performed as follows: 1 h incubation with the compounds in the dark, followed by 1 h incubation under irradiation conditions by placing the Photoreactor EXPO-LED from Luzchem (Canada) fitted with green lamps (final light intensity applied of 1.5 mW/cm^2 at λmax = 520 nm) inside the CO2 incubator. All the cell culture plates subjected to light irradiation included untreated controls to verify that cell viability was not affected by light. Then, treatment-containing media was removed, and fresh media was added for a 48 h cell recovery period; the temperature throughout the experiment remained at 310 K. Dark control samples were placed in the same dark conditions and then kept incubated for 1 h in the dark in the humidified CO2 incubator. Medium was then aspirated by suction, cells were loaded with 50 μL of MTT solution (1 mg/mL) for additional 4 h and then removed, and 50 μL of DMSO was added to solubilize the purple formazan crystals formed in active cells. The absorbance was measured at 570 nm using a microplate reader (FLUOstar Omega), and the IC50 values were calculated based on the inhibitory rate curves using the following equation [drawing 4] 4 where I represents the percentage inhibition of viability observed, Imax is the maximal inhibitory effect, IC50 is the concentration that inhibits 50% of maximal growth, C is the concentration of the treatment, and n is the slope of the semi-logarithmic dose–response sigmoidal curves. The non-linear fitting was performed using SigmaPlot 14.0 software. All experiments were performed in three independent studies with n = 3 replicates per concentration level. For a detailed phototoxicity procedure, ref ([43]) includes technical explanations.

[2] = system: HeLa; experiment: Photo- and cytotoxic activity determination (MTT), HeLa cells; format: cell-based; conditions: normoxia; for HeLa PI (phototherapeutic index), IC50 dark/IC50 irradiated: dark tested up to 100 μM
Description: as §1, §2
(§3) A2780, A2780cis, HeLa, A375, and SK-MEL-28 cells were maintained at logarithmic growth-phase and cultured in 96-well plates at a density of 5000 cells/well in complete medium for 24 h at 310 K, 5% CO2 in a humidified incubator. For hypoxia experiments, a hypoxia condition was set up by Tissue Culture Service at University of Murcia using nitrogen (N2) to displace O2 down to a minimum of 2% in a Forma Steri-Cycle i160 incubator (Thermo Fisher Scientific). Serial dilutions of the compounds were added at the final concentrations in the range of 0–100 μM in a final volume of 100 μL per well. A light-based treatment schedule was performed as follows: 1 h incubation with the compounds in the dark, followed by 1 h incubation under irradiation conditions by placing the Photoreactor EXPO-LED from Luzchem (Canada) fitted with green lamps (final light intensity applied of 1.5 mW/cm^2 at λmax = 520 nm) inside the CO2 incubator. All the cell culture plates subjected to light irradiation included untreated controls to verify that cell viability was not affected by light. Then, treatment-containing media was removed, and fresh media was added for a 48 h cell recovery period; the temperature throughout the experiment remained at 310 K. Dark control samples were placed in the same dark conditions and then kept incubated for 1 h in the dark in the humidified CO2 incubator. Medium was then aspirated by suction, cells were loaded with 50 μL of MTT solution (1 mg/mL) for additional 4 h and then removed, and 50 μL of DMSO was added to solubilize the purple formazan crystals formed in active cells. The absorbance was measured at 570 nm using a microplate reader (FLUOstar Omega), and the IC50 values were calculated based on the inhibitory rate curves using the following equation [drawing 4] 4 where I represents the percentage inhibition of viability observed, Imax is the maximal inhibitory effect, IC50 is the concentration that inhibits 50% of maximal growth, C is the concentration of the treatment, and n is the slope of the semi-logarithmic dose–response sigmoidal curves. The non-linear fitting was performed using SigmaPlot 14.0 software. All experiments were performed in three independent studies with n = 3 replicates per concentration level. For a detailed phototoxicity procedure, ref ([43]) includes technical explanations.

[3] = system: A375; experiment: Photo- and cytotoxic activity determination (MTT), A375 cells; format: cell-based, human; conditions: normoxia; for IC50: 48 h drug-free medium; for A375 PI (phototherapeutic index), IC50 dark/IC50 irradiated: 520 nm, dark tested up to 100 μM
Description: as §1, §2, §3

[4] = system: A2780; experiment: Photo- and cytotoxic activity determination (MTT), A2780 cells; format: cell-based; conditions: normoxia; for A2780 PI (phototherapeutic index), IC50 dark/IC50 irradiated: dark tested up to 100 μM
Description: as §1, §2, §3

[5] = A2780cis, hypoxia 2% O2, dark, tested up to 250 μM, read-out: Hypoxia Dark IC50
[6] = A2780cis, normoxia 21% O2, dark, tested up to 250 μM, read-out: Normoxia Dark IC50
[7] = A2780cis, hypoxia 2% O2, 520 nm
[8] = A2780cis, normoxia 21% O2, 520 nm
[9] = hypoxia, 520 nm, read-out: A2780cis Light 520 nm IC50 (microM) Hypoxia
[10] = hypoxia, dark, read-out: A2780cis Dark IC50 (microM) Hypoxia
[11] = normoxia, 1 h incubation + 1 h green light 520 nm, 1.5 mW cm^–2, 48 h drug-free medium, read-out: A2780cis light IC50
[12] = normoxia, dark, up to 250 microM, read-out: A2780cis Dark IC50 (microM) Normoxia
[13] = normoxia, kept in the dark, tested up to 100 μM, 2 h treatment, 48 h drug-free medium, read-out: A2780cis dark IC50
[14] = 1 h incubation + 1 h green light 520 nm, 1.5 mW cm^–2, 48 h drug-free medium, read-out: HeLa light IC50
[15] = kept in the dark, 2 h treatment, 48 h drug-free medium, read-out: HeLa dark IC50
[16] = 1 h incubation + 1 h green light 520 nm, 1.5 mW cm^–2, read-out: A375 light IC50
[17] = kept in the dark, 2 h treatment, read-out: A375 dark IC50
[18] = 1 h incubation + 1 h green light 520 nm, 1.5 mW cm^–2, 48 h drug-free medium, read-out: A2780 light IC50
[19] = kept in the dark, 2 h treatment, 48 h drug-free medium, read-out: A2780 dark IC50

Row | SMILES | IC50 [1, 5] [µM] | IC50 [1, 6] [µM] | A375 PI (phototherapeutic index), IC50 dark/IC50 irradiated [3] | Partial inhibition (% of cell growth inhibition with respect to untreated controls), Hypoxia ([1]; A2780cis, hypoxia) [%] | Partial inhibition (% of cell growth inhibition with respect to untreated controls), Normoxia ([1]; A2780cis, normoxia) [%] | Hypoxia PI (phototherapeutic index) [1, 7] | Normoxia PI (phototherapeutic index) [1, 8] | IC50 [1, 9] [µM] | IC50 [1, 10] [µM] | A2780cis PI (phototherapeutic index), IC50 dark/IC50 irradiated ([1]; normoxia, 520 nm) | IC50 [1, 11] [µM] | IC50 [1, 12] [µM] | IC50 [1, 13] [µM] | HeLa PI (phototherapeutic index), IC50 dark/IC50 irradiated ([2]; 520 nm) | IC50 [2, 14] [µM] | IC50 [2, 15] [µM] | IC50 [3, 16] [µM] | IC50 [3, 17] [µM] | A2780 PI (phototherapeutic index), IC50 dark/IC50 irradiated ([4]; 520 nm) | IC50 [4, 18] [µM] | other results
1 | CC1=C/C(=C(\C#N)c2cc[n+](C)cc2)Oc2ccccc21 [1b] | > 250 | > 250 | > 10 |  |  |  |  |  |  |  |  |  |  |  |  |  |  |  |  |  | inhibition at 250 µM ([1]; A2780cis, hypoxia, read-out: Partial inhibition (% of cell growth inhibition with respect to untreated controls), Hypoxia): 4.5 ± 0.6%; inhibition at 250 µM ([1]; A2780cis, normoxia, read-out: Partial inhibition (% of cell growth inhibition with respect to untreated controls), Normoxia): 24 ± 3%; IC50 ([1]; A2780cis, hypoxia 2% O2, 1 h incubation + 1 h green light 520 nm, 48 h drug-free, read-out: Hypoxia 520 nm IC50): > 250 µM; IC50 ([1]; A2780cis, hypoxia, 520 nm, read-out: A2780cis Light 520 nm IC50 (microM) Hypoxia): > 250 µM; IC50 ([1]; A2780cis, hypoxia, dark, read-out: A2780cis Dark IC50 (microM) Hypoxia): > 250 µM; IC50 ([1]; A2780cis, normoxia 21% O2, 1 h incubation + 1 h green light 520 nm, 48 h drug-free, read-out: Normoxia 520 nm IC50): > 250 µM; IC50 ([1]; A2780cis, normoxia, 520 nm, read-out: A2780cis Light 520 nm IC50 (microM) Normoxia): > 250 µM; IC50 ([1]; A2780cis, normoxia, dark, up to 250 microM, read-out: A2780cis Dark IC50 (microM) Normoxia): > 250 µM; IC50 ([2]; Homo sapiens, HeLa, 520 nm, read-out: HeLa Light 520 nm IC50 (microM) Normoxia): > 100 µM; IC50 ([2]; Homo sapiens, HeLa, 1 h incubation + 1 h green light 520 nm, 1.5 mW cm^–2, 48 h drug-free medium, read-out: HeLa light IC50): > 100 µM; IC50 ([2]; Homo sapiens, HeLa, dark, read-out: HeLa Dark IC50 (microM) Normoxia): > 100 µM; IC50 ([2]; Homo sapiens, HeLa, kept in the dark, 2 h treatment, 48 h drug-free medium, read-out: HeLa dark IC50): > 100 µM; IC50 ([3]; Homo sapiens, A-375, 1 h incubation + 1 h green light 520 nm, 1.5 mW cm^–2, read-out: A375 light IC50): 10 ± 2 µM; IC50 ([3]; Homo sapiens, A-375, kept in the dark, 2 h treatment, read-out: A375 dark IC50): > 100 µM; IC50 ([4]; Homo sapiens, A2780, 520 nm, read-out: A2780 Light 520 nm IC50 (microM) Normoxia): > 100 µM; IC50 ([4]; Homo sapiens, A2780, 1 h incubation + 1 h green light 520 nm, 1.5 mW cm^–2, 48 h drug-free medium, read-out: A2780 light IC50): > 100 µM; IC50 ([4]; Homo sapiens, A2780, dark, read-out: A2780 Dark IC50 (microM) Normoxia): > 100 µM; IC50 ([4]; Homo sapiens, A2780, kept in the dark, 2 h treatment, 48 h drug-free medium, read-out: A2780 dark IC50): > 100 µM
2 | CCCCn1c2[n+](c3cc(C(=O)NCCCNC(=O)C[n+]4ccc(/C(C#N)=C5/C=C(C)c6cc7c8c(c6O5)CCCN8CCC7)cc4)ccc31)[Ir-3]13([c]4ccccc4-c4[nH]c5ccccc5[n+]41)([c]1ccccc1-c1[nH]c4ccccc4[n+]13)[n+]1c-2ccc2ccccc21 [3c] | > 250 | > 250 | > 3 | 61 ± 8 | 74 ± 10 | > 31.3 and > 31 | > 240.4 and > 240 | 8 ± 1 | > 250 | > 96 | 1.04 ± 0.02 | > 250 | > 100 | > 2.2 | 45 ± 4 | > 100 | 38 ± 5 | > 100 | > 48 | 2.1 ± 0.2 | IC50 [4, 19]: > 100 µM
3 | CCCCn1c2[n+](c3cc(C(=O)NCCCCCC(=O)NCCCNC(=O)C[n+]4ccc(/C(C#N)=C5/C=C(C)c6ccc(N(CC)CC)cc6O5)cc4)ccc31)[Ir-3]13([c]4ccccc4-c4[nH]c5ccccc5[n+]41)([c]1ccccc1-c1[nH]c4ccccc4[n+]13)[n+]1c-2ccc2ccccc21 [3d] | > 250 | > 250 | > 2.2 | 27 ± 4 | 21 ± 1 | > 131.6 and > 131 | > 227.3 and > 227 | 1.9 ± 0.2 | > 250 | > 91 | 1.1 ± 0.2 | > 250 | > 100 | > 50 | 2 ± 0.4 | > 100 | 46 ± 4 | > 100 | > 56 | 1.78 ± 0.07 | IC50 [4, 19]: > 100 µM

Reference: article PMC10291553, “Exploring Structure–Activity Relationships in Photodynamic Therapy Anticancer Agents Based on Ir(III)-COUPY Conjugates” (Journal of Medicinal Chemistry, 2023)
